Results reported in patent US9145405B2, “Oxadiazole compound and preparation method thereof, pharmaceutical composition and use thereof” (SHANGHAI JIAO TONG UNIVERSITY, priority 2011, dated 2015).
≈ marks a conversion by molar mass, not a printed value. Where two headings read alike, the source gives them in different places.

Columns and labels:
[1] = system: Vero cells; assay: Toxicity (half toxic concentration) in the anti-Cox_B3 test on Vero cells; type: cell-based
[2] = system: Cox_B3 virus; assay: Anti-Cox_B3 test: inhibition of cytopathic effect (CPE) in infected Vero cells, Reed-Muench; type: cell-based; conditions: for IC50: read-out: IC50 (half-inhibitory concentration for viruses)
Excerpt: The present examples verifies experimental results of anti-Cox_B3 of the compounds 1-137of the present invention, Pleconaril, 3-[3,5-dimethyl-4-[5-(3-methy-1,2-oxazolyl)propoxy]phenyl]-5-(trifluonomethyl) -1,2,4-oxadiazole is used as positive control.

[3] = Cox_B3 virus in Vero cells, CPE, Reed-Muench method

| Molecule | TC50 (half of the toxic concentration) [1] | IC50 (half-inhibitory concentration for viruses) [2, 3] | TC50 (half of the toxic concentration) ([1]; Vero cells, Cox_B3) | IC50 [2, 3] | IC50 ([2]; Vero) |
| --- | --- | --- | --- | --- | --- |
| 2-[2,6-dimethyl-4-[(5-(trifluoromethyl)-1,2,4-oxadiazole-3-yl)phenoxyl]ethoxyl]-3-fluoro-5-methylpyridine [Compound 47] | 39.56 mg/L | 0.082 mg/L |  |  |  |
| 2-[2,6-dimethyl-4-[(5-(trifluoromethyl)-1,2,4-oxadiazole-3-yl)phenoxyl]ethoxyl]-3-fluoro-5-methylpyridine [Compound 101] | 37.35 mg/L | 0.078 mg/L |  |  |  |
| 3-[2,6-dimethyl-4-[(5-(trifluoromethyl)-1,2,4-oxadiazole-3-yl)phenoxyl]ethoxyl]-6-methylpyridazine [Compound 56] | 22.22 mg/L | 0.20 mg/L |  |  |  |
| 3-[2,6-dimethyl-4-[(5-(trifluoromethyl)-1,2,4-oxadiazole-3-yl)phenoxyl]ethoxyl]-6-methylpyridazine [Compound 110] | 36.89 mg/L | 0.28 mg/L |  |  |  |
| 3-[2-(2,6-dimethyl-4-[(5-(trifluoromethyl)-1,2,4-oxadiazole-3-yl)phenoxyl]ethoxyl]-2-formamide-6-fluoropyrazine [Compound 55] |  | 0.16 mg/L | 36.66 mg/L |  |  |
| 3-[2-(2,6-dimethyl-4-[(5-(trifluoromethyl)-1,2,4-oxadiazole-3-yl)phenoxyl]ethoxyl]-2-formamide-6-fluoropyrazine [Compound 109] |  | 0.13 mg/L | 48.21 mg/L |  |  |
| 3-[2-[2,6-dimethyl-4-[5-(trifluoromethyl)-1,2,4-oxadiazole-3-yl]phenoxyl]ethoxyl]isoxazole-5-carboxylate [Compound 58] | 40.67 mg/L | 0.082 mg/L |  |  |  |
| 3-[3,5-dimethyl-4-[2-(3-methyl-1,2,4-thiadiazole-5-thio)ethoxyl]phenyl]-5-(trifluoromethyl)-1,2,4-oxadiazole [Compound 23] | 39.78 mg/L | 0.12 mg/L |  |  |  |
| 3-[3,5-dimethyl-4-[2-(3-methyl-1,2,4-thiadiazole-5-thio)ethoxyl]phenyl]-5-(trifluoromethyl)-1,2,4-oxadiazole [Compound 77] | 38.58 mg/L | 0.16 mg/L |  |  |  |
| 3-[3,5-dimethyl-4-[2-(4-methylthiazole-2-thio)ethoxyl]phenyl]-5-(trifluoromethyl)-1,2,4-oxadiazole [Compound 14] | 40.58 mg/L | 0.11 mg/L |  |  |  |
| 3-[3,5-dimethyl-4-[2-(4-methylthiazole-2-thio)ethoxyl]phenyl]-5-(trifluoromethyl)-1,2,4-oxadiazole [Compound 68] | 43.87 mg/L | 0.38 mg/L |  |  |  |
| 3-[3,5-dimethyl-4-[2-(5-methyl-1H-imidazole-2-thio)ethoxyl]phenyl]-5-(trifluoromethyl)-1,2,4-oxadiazole [Compound 18] |  | 0.13 mg/L |  |  |  |
| 3-[3,5-dimethyl-4-[(2-(cyclohexyloxy)-ethoxyl)phenyl]-5-(trifluoromethyl)-1,2,4-oxadiazole [Compound 35] |  | 0.08 mg/L | 36.78 mg/L |  |  |
| 3-[3-[2,6-dimethyl-4-[5-(trifluoromethyl)-1,2,4-oxadiazole-3-yl]phenoxyl]propoxy]isoxazole-5-carboxylate [Compound 61] | 37.58 mg/L | 0.23 mg/L |  |  |  |
| 4-[2,6-dimethyl-4-(5-(trifluoromethyl)-1,2,4-oxadiazole-3-yl) phenoxyl]ethoxyl]-2-hydroxy-5-fluoropyrimidine [Compound 107] | 33.82 mg/L | 0.085 mg/L |  |  |  |
| 4-[2,6-dimethyl-4-[(5-(trifluoromethyl)-1,2,4-oxadiazole-3-yl)phenoxyl]ethoxyl]-2-hydroxyl-5-fluoropyrimidine [Compound 53] | 46.89 mg/L | 0.056 mg/L |  |  |  |
| 4-[2,6-dimethyl-4-[(5-(trifluoromethyl)-1,2,4-oxadiazole-3-yl)phenoxyl]ethoxyl]-2-methoxyl-5-fluoropyrimidine [Compound 54] | 43.15 mg/L | 0.067 mg/L |  |  |  |
| 4-[2,6-dimethyl-4-[(5-(trifluoromethyl)-1,2,4-oxadiazole-3-yl)phenoxyl]ethoxyl]-2-methoxyl-5-fluoropyrimidine [Compound 108] | 47.58 mg/L | 0.078 mg/L |  |  |  |

| Molecule | TC50 (half of the toxic concentration) [1] | IC50 (half-inhibitory concentration for viruses) [2, 3] | TC50 (half of the toxic concentration) ([1]; Vero cells, Cox_B3) | IC50 [2, 3] | IC50 ([2]; Vero) |
| --- | --- | --- | --- | --- | --- |
| 4-[2,6-dimethyl-4-[(5-(trifluoromethyl)-1,2,4-oxadiazole-3-yl)phenoxyl]ethoxyl]-3-fluorobenzonitrile [Compound 38] | 45.28 mg/L | 0.048 mg/L |  |  |  |
| 4-[2,6-dimethyl-4-[(5-(trifluoromethyl)-1,2,4-oxadiazole-3-yl)phenoxyl]ethoxyl]-3-fluorobenzonitrile [Compound 92] | 43.78 mg/L | 0.18 mg/L |  |  |  |
| 5-[2,6-dimethyl-4-[(5-(trifluoromethyl)-1,2,4-oxadiazole-3-yl)phenoxyl]ethoxyl]pyridine-2-oxy-ethylketoxime [Compound 45] |  | 0.10 mg/L | 32.28 mg/L |  |  |
| 5-[2,6-dimethyl-4-[(5-(trifluoromethyl)-1,2,4-oxadiazole-3-yl)phenoxyl]ethoxyl]pyridine-2-oxy-ethylketoxime [Compound 99] |  | 0.083 mg/L | 37.81 mg/L |  |  |
| 6-[2,6-dimethyl-4-[(5-(trifluoromethyl)-1,2,4-oxadiazole-3-yl)phenoxyl]ethoxyl]-3-cyanopyridine [Compound 50] | 36.88 mg/L | 0.087 mg/L |  |  |  |
| 6-[2,6-dimethyl-4-[(5-(trifluoromethyl)-1,2,4-oxadiazole-3-yl)phenoxyl]ethoxyl]-3-cyanopyridine [Compound 104] | 37.56 mg/L | 0.082 mg/L |  |  |  |
| 6-[2,6-dimethyl-4-[(5-(trifluoromethyl)-1,2,4-oxadiazole-3-yl)phenoxyl]ethoxyl]-5-fluoro-2-hydroxy-3-cyanopyridine [Compound 102] | 36.28 mg/L | 0.10 mg/L |  |  |  |
| 6-[2,6-dimethyl-4-[(5-(trifluoromethyl)-1,2,4-oxadiazole-3-yl)phenoxyl]ethoxyl]-5-fluoro-2-hydroxyl-3-cyanopyridine [Compound 48] | 42.12 mg/L | 0.15 mg/L |  |  |  |
| 6-[2,6-dimethyl-4-[(5-(trifluoromethyl)-1,2,4-oxadiazole-3-yl)phenoxyl]ethoxyl]-5-fluoro-3-cyanopyridine [Compound 46] | 38.58 mg/L | 0.088 mg/L |  |  |  |
| 6-[2,6-dimethyl-4-[(5-(trifluoromethyl)-1,2,4-oxadiazole-3-yl)phenoxyl]ethoxyl]-5-fluoro-3-cyanopyridine [Compound 100] | 38.63 mg/L | 0.069 mg/L |  |  |  |
| 6-[2,6-dimethyl-4-[(5-(trifluoromethyl)-1,2,4-oxadiazole-3-yl)phenoxyl]ethoxyl]-5-methylpyridine [Compound 51] | 40.58 mg/L | 0.078 mg/L |  |  |  |
| 6-[2,6-dimethyl-4-[(5-(trifluoromethyl)-1,2,4-oxadiazole-3-yl)phenoxyl]ethoxyl]-5-methylpyridine [Compound 105] | 43.18 mg/L | 0.13 mg/L |  |  |  |
| 6-[2,6-dimethyl-4-[(5-(trifluoromethyl)-1,2,4-oxadiazole-3-yl)phenoxyl]ethoxyl]-5-trifluoromethylpyridine [Compound 52] | 41.28 mg/L | 0.13 mg/L |  |  |  |
| 6-[2,6-dimethyl-4-[(5-(trifluoromethyl)-1,2,4-oxadiazole-3-yl)phenoxyl]ethoxyl]-5-trifluoromethylpyridine [Compound 106] | 36.36 mg/L | 0.09 mg/L |  |  |  |
| 6-[2,6-dimethyl-4-[(5-(trifluoromethyl)-1,2,4-oxadiazole-3-yl)phenoxyl]ethoxyl]pyridine-2-oxy-ethylketoxime [Compound 98] | 42.89 mg/L | 0.093 mg/L |  |  |  |
| Cc1cc(-c2noc(C(F)(F)F)n2)cc(C)c1OCCCOc1cc(C(F)(F)F)no1 [Compound 9, 3-[3,5-dimethyl-4-[3-(3-trifluoromethylisoxazole-5-oxy)propoxy]phenyl]-5-(trifluoromethyl)-1,2,4-oxadiazole] |  |  |  | 0.031 mg/L (≈ 0.0687 µM) |  |
| Cc1cc(Cl)c(OCCCOc2c(C)cc(-c3noc(C(F)(F)F)n3)cc2C)c(Cl)c1 [Compound 130, 3-[4-[3-[2,6-dichloro-4-methylphenoxyl]propoxy]-3,5-dimethylphenyl]-5-(trifluoromethyl)-1,2,4-oxadiazole] |  |  |  |  | 0.031 mg/L (≈ 0.0652 µM) |
